Consider 92 molecules from the OPERA property sets (Mansouri et al. 2018).

Peptide text beside a SMILES is read from it.

In turn, `CNC(=O)Oc1cc(C)cc(C(C)C)c1` showed a logP of 3.1.

`COc1ccc(C(=O)NN)cc1` displayed a lipophilicity (logP) of 0.25.

`FC(F)(F)c1nc2ccc(Br)cc2[nH]1` returned a log partition coefficient (logP) of 3.57.

The molecule `O=C(O)c1ccccc1F` gave a logP of 1.77.

For `CCc1ccc(S(I)=C(N(C)C)N(C)C)cc1` (configuration not stated), the lipophilicity (logP) came to 0.29.

In the case of `Cn1c(N)nc2ccc(C#N)cc21`, the log partition coefficient (logP) was found to be 1.29.

As to `O=C(O)c1cccc(C(F)(F)F)c1`, the log partition coefficient (logP) worked out at 2.95.

For the molecule `O=C(CN1CCCCC1)Nc1ccc(Br)cc1`, the logP worked out at 3.57.

`CCN1CCN(C(=O)NC(C(=O)NC2C(=O)N3C(C(=O)O)=C(CSc4nnnn4C)CSC23)c2ccc(O)cc2)C(=O)C1=O` (configuration not stated) came in with a log partition coefficient (logP) of -0.74.

`C1=c2ccc3cccc4ccc(c2c43)CC1` had a logP of 4.92.

As for `Cc1ccc(NC(=O)N(C)C)cc1`, the log partition coefficient (logP) was determined as 1.33.

`CN(C)C(=O)Nc1ccc(Cl)cc1` yielded a logP of 1.94.

Consider `O=C(O)Cc1ccccc1Nc1ccc(Cl)c(Cl)c1`, for which the lipophilicity (logP) was determined as 4.9.

For the molecule `NC(=S)NN=Cc1ccccc1`, the lipophilicity (logP) amounted to 1.86.

With `O=C(C(F)(F)F)C(F)(F)F`, the lipophilicity (logP) was found to be 1.46.

The molecule `NC(Cc1ccccc1)Cc1ccccc1` had a logP of 3.35.

Regarding `C[C@]12CC[C@H]3[C@@H](CCC4=CC(=O)CC[C@@H]43)[C@@H]1CC[C@@H]2O`, the logP stood at 2.62.

Regarding `Cc1cc(C)[nH]n1`, the log partition coefficient (logP) was 1.01.

Molecule `Ic1ccc(I)cc1` displayed a logP of 4.11.

Consider `FC(F)(F)c1cccc(C(F)(F)F)c1`, for which the logP stood at 3.83.

For the molecule `c1ccc(OCCOc2ccccc2)cc1`, the lipophilicity (logP) turned out to be 3.81.

As to `CC(=O)c1ccc(F)cc1`, the log partition coefficient (logP) is 1.72.

Molecule `NC(Cc1ccccc1)C(=O)OCn1ncc2c(=O)[nH]cnc21` (configuration not stated) had a logP of 0.4.

Regarding `CNC(=O)Oc1ccc2c(c1)[C@]1(C)CCN(C)[C@@H]1N2C`, the lipophilicity (logP) came to 1.58.

Consider `O=C(O)c1ccsc1`, for which the log partition coefficient (logP) was 1.5.

Molecule `CC(=O)Nc1ccccc1O` yielded a log partition coefficient (logP) of 0.72.

The molecule `CC(C)CCC(=O)c1ccoc1` yielded a logP of 2.76.

As for `Cc1cccc(CO)c1`, the logP was determined as 1.6.

`CNC1=CC(=O)c2ccccc2C1=O` had a logP of 1.74.

Consider `CC(=O)N[C@@H](Cc1c[nH]c2ccccc12)C(=O)N[C@H](C(N)=O)C(C)C` (Ac-Trp-Val-NH2), for which the logP was 0.73.

Molecule `C#CCn1cncc1[N+](=O)[O-]` had a lipophilicity (logP) of 0.52.

As for `OCc1cccc(C(F)(F)F)c1`, the log partition coefficient (logP) is 2.24.

In turn, `CCC(Oc1ccccc1)C(=O)N[C@@H]1C(=O)N2[C@@H]1SC(C)(C)[C@@H]2C(=O)O` (some centres not stated) came in with a log partition coefficient (logP) of 2.65.

In the case of `CCCC(CC(C)=O)C(=O)O` (configuration not stated), the lipophilicity (logP) was 1.31.

Turning to `CON(C)C(=O)Nc1cccc([N+](=O)[O-])c1`, the logP amounted to 1.64.

`CCCC(=NOCC)C1C(=O)CC2(CCC(CC)CC2)OC1=O` (configuration not stated): the lipophilicity (logP) turned out to be 4.48.

The molecule `CCCS(=O)(=O)CCn1c([N+](=O)[O-])cnc1C` yielded a logP of 0.23.

With `CCBr`, the logP was 1.61.

Take `O=C(O)COc1ccc(Cl)c(Br)c1`: the logP was found to be 2.75.

Consider `Cc1ccccc1OCC(O)CO` (configuration not stated), for which the logP was found to be 1.41.

Molecule `c1ccc(-c2ccncc2)cc1` gave a lipophilicity (logP) of 2.59.

On to `O=c1ccoc2cc(O)ccc12`, for which the log partition coefficient (logP) is 1.44.

`O=C1NC(=O)[C@@]2(CCOc3ccc(F)cc32)N1` registered a log partition coefficient (logP) of 0.78.

In the case of `O=C(NP(=O)(N1CC1)N1CC1)c1ccc(Cl)cc1`, the lipophilicity (logP) was 0.97.

For `O=C(NC(CO)C(O)c1ccc(Br)cc1)C(Cl)Cl` (configuration not stated), the logP is 1.87.

As to `CC(C)OC(=O)c1ccccc1C(=O)OC(C)C`, the logP amounted to 2.83.

`CCN(CC)c1cc(C(=O)NN)ccn1` yielded a logP of 1.12.

In the case of `CN(C)C(=O)c1cccnc1`, the logP is -0.48.

For `CC1(c2ccncc2)CCC(=O)NC1=O` (configuration not stated), the logP was 0.07.

Regarding `CC(=O)Oc1cccc(O)c1`, the logP was 1.23.

Consider `CCCOC(=O)c1ccccc1C(=O)OCCC`, for which the logP amounted to 3.27.

`Oc1cc(Cl)c(Cl)c(Cl)c1` displayed a lipophilicity (logP) of 4.01.

`COC(=O)c1cc(Oc2ccc(Cl)cc2Cl)ccc1[N+](=O)[O-]` came in with a lipophilicity (logP) of 4.48.

As to `Cc1c(CC(=O)O)sc2ccc(Cl)cc12`, the lipophilicity (logP) was 3.92.

Consider `O=c1[nH]c(=O)n([C@H]2C[C@H](O)[C@@H](CO)O2)cc1Br`, for which the lipophilicity (logP) was -0.29.

In the case of `Cc1cccc(C=C(C(N)=O)C(N)=O)c1`, the logP turned out to be 0.4.

Molecule `Cn1c([N+](=O)[O-])cnc1-c1ccc(C(N)=O)cc1` yielded a lipophilicity (logP) of 0.98.

`CCOc1ccccc1-c1nc(N)nc(N)n1` yielded a logP of 1.03.

In turn, `COc1cc(S(C)=O)ccc1-c1nc2ccncc2[nH]1` (configuration not stated) came in with a logP of 1.25.

In turn, `O=C(O)c1ccc(N=C=S)cc1` yielded a lipophilicity (logP) of 3.52.

Take `CC=CC(C)=O`: the logP turned out to be 0.52.

With `Nc1ccc(CCO)cc1`, the logP came out at 0.1.

As to `Cc1cnc2ccccc2n1`, the logP came out at 1.61.

As to `CC(=O)NC(Cc1c[nH]c2ccccc12)C(=O)NCC(=O)NC(Cc1ccccc1)C(N)=O` (stereo not drawn) (Ac-Trp-Gly-Phe-NH2; configuration not given here), the logP was 0.99.

Molecule `C#CC(C)OC(=O)Nc1ccc(OCC)c(OCC)c1` (configuration not stated) registered a logP of 2.68.

Turning to `Cl[C@H]1[C@H](Cl)[C@@H](Cl)[C@@H](Cl)[C@H](Cl)[C@H]1Cl` (racemic), the logP was found to be 3.72.

As for `Brc1ccccc1Br`, the logP is 3.64.

Regarding `CC(=O)c1ccc([N+](=O)[O-])cc1`, the lipophilicity (logP) was 1.53.

Molecule `COc1ccc(CO)cc1` returned a log partition coefficient (logP) of 1.1.

Molecule `CCCCCCCC(=O)O` had a logP of 3.05.

For the molecule `CN(C)C(=O)Nc1cccc(CCc2ccccc2)c1`, the logP is 3.21.

`Cc1cc2ccccc2[nH]1`: the logP is 2.53.

As for `CCC1(c2ccccc2)CCC(=O)NC1=O` (configuration not stated), the log partition coefficient (logP) is 1.9.

Consider `CSc1nnc(C(C)(C)C)c(=O)n1N`, for which the logP was found to be 1.7.

For `NC(Cc1ccc([N+](=O)[O-])cc1)C(=O)O` (configuration not stated), the logP is -1.25.

`Cc1nc(N)nc(N)c1C12CC3CC(CC(C3)C1)C2` returned a log partition coefficient (logP) of 2.64.

In turn, `CCc1ccc(OC(C)=O)cc1` returned a logP of 2.56.

Consider `O=c1[nH]cc(F)c(=O)[nH]1`, for which the log partition coefficient (logP) was -0.89.

`O=[N+]([O-])O[C@H]1CO[C@H]2[C@@H]1OC[C@H]2O[N+](=O)[O-]` had a lipophilicity (logP) of 1.31.

Regarding `CCCCCCCCBr`, the log partition coefficient (logP) turned out to be 4.89.

As to `CN(C)C(N(C)C)=S(I)c1ccc(Cl)c(Cl)c1Cl` (configuration not stated), the logP was determined as 0.95.

On to `COc1ccccc1C(N)=O`, for which the logP worked out at 0.86.

Turning to `NC(=O)CCCc1cccnc1`, the logP is -0.08.

Turning to `CC(=O)Nc1ccccc1C`, the logP worked out at 0.85.

`O=c1c(O)c(-c2ccc(O)cc2O)oc2cc(O)cc(O)c12` yielded a log partition coefficient (logP) of 1.54.

For `CCCOC1OC(CO)C(O)C(O)C1O` (configuration not stated), the logP is -1.66.

`COC(=O)c1ccc(C(=O)OC)cc1` showed a logP of 2.25.

The molecule `N#Cc1ccccc1N` had a log partition coefficient (logP) of 1.4.

Take `CC(=O)Oc1ccccc1C(C)C`: the logP turned out to be 2.78.

On to `CC1OC(OC2C(O)CC(OC3C(O)CC(OC4CCC5(C)C(CCC6C5CC(O)C5(C)C(C7=CC(=O)OC7)CCC65O)C4)OC3C)OC2C)CC(OC(=O)C2OC(O)CC(O)C2O)C1O` (configuration not stated), for which the lipophilicity (logP) is -1.77.

As for `CC(=O)Nc1cccnc1`, the log partition coefficient (logP) was 0.41.

As for `BrCCBr`, the log partition coefficient (logP) turned out to be 1.96.
